Target: Sphingosine 1-phosphate receptor 1 (Homo sapiens, UniProt P21453)
Assay: S1P1 receptor agonists, dose response, cell-based, agonist mode, 60K MLSMR set (AID 468)
[1] = inactive by the depositor's call

Sequence of Sphingosine 1-phosphate receptor 1 (P21453 whole entry): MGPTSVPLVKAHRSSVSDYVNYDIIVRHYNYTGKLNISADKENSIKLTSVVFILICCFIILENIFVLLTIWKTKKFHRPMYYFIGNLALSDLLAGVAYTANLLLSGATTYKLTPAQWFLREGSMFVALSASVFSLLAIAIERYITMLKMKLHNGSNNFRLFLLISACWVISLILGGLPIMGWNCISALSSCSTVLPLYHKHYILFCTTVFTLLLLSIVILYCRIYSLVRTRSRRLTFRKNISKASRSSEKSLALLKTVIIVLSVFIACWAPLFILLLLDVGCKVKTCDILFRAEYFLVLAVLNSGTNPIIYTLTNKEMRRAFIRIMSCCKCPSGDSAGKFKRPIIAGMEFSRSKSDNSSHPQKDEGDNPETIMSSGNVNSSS

| Compound | EC50 [µM] | EC50 [1] [µM] |
| --- | --- | --- |
| COc1ccc2c(c1)CCc1c(C(=O)Nc3ccc(OC)c(OC)c3)noc1-2 [MLS000087452] | 3.3 |  |
| CCOc1ccc(C(C)=O)cc1-n1c(O)c2c(c1O)C1C=CC2O1 [MLS000087730] | 10.2 |  |
| O=C(Nc1nc(-c2nc3ccccc3s2)cs1)c1ccc(S(=O)(=O)N2CCOCC2)cc1 [MLS000087900] |  | 17.6 |
| Cn1c(SCC(=O)Nc2ccc(N3CCOCC3)c(Cl)c2)nnc1-c1ccccc1 [MLS000089171] | 2.22 |  |
| CCCC(=O)Nc1ccc(-c2nc3cc(C)c(C)cc3o2)cc1 [MLS000089940] |  | 10.2 |
| O=S(=O)(NCc1cn2ccsc2n1)c1ccc(Oc2ccccc2)cc1 [MLS000094195] | 6.07 |  |
| CCCC(=O)N1CCN(c2ccc(NC(=O)c3cc4ccccc4o3)cc2Cl)CC1 [MLS000096729] | 8.85 |  |
| CCCc1ccc(OCc2nc(-c3ccc(NC(=O)c4ccco4)cc3)no2)cc1 [MLS000097352] | 4.39 |  |
| O=C(Nc1nc(-c2ccc(Cl)s2)cs1)c1ccncc1 [MLS000098514] | > 3 |  |
| O=C(Nc1ccc(S(=O)(=O)NCc2ccco2)cc1)c1ccc2ccccc2n1 [MLS000098663] | 8.51 |  |
| CCC(=O)Nc1ccc2c(c1)C(=O)N(C1CCCCC1)C2=O [MLS000099936] | > 30 |  |
| Cc1cccc(-n2ncc3c(N(C)C4CCCCC4)ncnc32)c1 [MLS000100814] |  | 95 |
| O=C(c1ccc(Cl)s1)N1CCN(c2nc3ccccc3s2)CC1 [MLS000100900] | > 30 |  |
| Cc1nc2ccc3nc(NC(=O)C4COc5ccccc5O4)sc3c2s1 (configuration not stated) [MLS000100909] | 4.9 |  |
| CCc1nnc(NC(=O)C2CCCCC2)s1 [MLS000104554] | > 95 |  |
| CCCOc1ccc(S(=O)(=O)NCc2ccc(OC)cc2)cc1 [MLS000104592] |  | 23.1 |
| CC(=O)Oc1ccc(-n2c(O)c3c(c2O)C2(C)C=CC3(C)O2)cc1 [MLS000107813] | 11.8 |  |
| COc1ccc(NC(=O)c2cnn3c(C(F)(F)F)cc(-c4ccco4)nc23)cc1OC [MLS000109325] | > 95 |  |
| Cc1cc2nc(-c3ccc(NC(=O)C(C)C)cc3)oc2cc1C [MLS000109473] | 3.04 |  |
| COc1ccc(CN=O)cc1COc1ccc(NC(C)=O)cc1 [MLS000111933] | > 95 |  |
| COC(=O)Cc1sc(=O)[nH]c1Nc1ccccc1 [MLS000111966] | > 95 |  |

| Compound | EC50 [µM] | EC50 [1] [µM] |
| --- | --- | --- |
| Cc1cc(C=Nn2cnnc2)c(C)n1-c1ccc(OCc2ccc(F)cc2)cc1 [MLS000112167] | 0.552 |  |
| Cc1cc(C=Nn2cnnc2)c(C)n1-c1ccc(OCc2ccccc2F)cc1 [MLS000112180] | 1.08 |  |
| CC(C)(C)SCCNS(=O)(=O)c1ccccc1 [MLS000112230] | > 95 |  |
| COc1ccc(-c2nc(-c3ccc(NC(=O)c4ccncc4)cc3)no2)cc1OC [MLS000115086] | 0.946 |  |
| CC(=O)Nc1ccc(S(=O)(=O)N2CCN(c3cccc(C)c3C)CC2)cc1 [MLS000115810] |  | 15.4 |
| CSc1ccc(S(=O)(=O)Nc2ccc3c(c2)OCCO3)cc1 [MLS000115922] |  | 13.6 |
| O=C(Nc1c(F)cc(F)cc1Br)c1cc(-c2ccc(O)cc2)on1 [MLS000116264] | 2.37 |  |
| CCCc1cc(C(=O)Nc2sc(C)c(CC)c2C#N)no1 [MLS000116385] | 3.73 |  |
| CCCc1cc(C(=O)Nc2sc3c(c2C#N)CCC3)no1 [MLS000116386] | > 95 |  |
| CC(C)Cc1cc(C(=O)Nc2cc(Br)ccc2O)no1 [MLS000116399] |  | 20.2 |
| CC(C)Cc1cc(C(=O)Nc2sc3c(c2C#N)CCCC3)no1 [MLS000116410] | > 10 |  |
| Cc1nn(Cc2ccc(Cl)c(Cl)c2)c(C)c1NC(=O)c1cc(CC(C)C)on1 [MLS000116412] | 9.16 |  |
| CCCOC(=O)c1[nH]c2c(c1C)C(=O)CC(c1cc(OC)c(OC)c(OC)c1)C2 (configuration not stated) [MLS000116504] |  | 10.9 |
| CCC(C)OC(=O)c1[nH]c2c(c1C)C(=O)CC(c1ccc(N(C)C)cc1)C2 (configuration not stated) [MLS000116530] |  | 18.7 |
| O=C(C1CCN(S(=O)(=O)c2cccc3cccnc23)CC1)N1CCN(c2ccc(Cl)cc2)CC1 [MLS000116819] |  | 17.3 |
| Cc1noc(C)c1S(=O)(=O)N(CC(=O)Nc1ccc2c(c1)OCO2)c1ccc(C(C)C)cc1 [MLS000117405] | > 95 |  |
| Cc1noc(C)c1S(=O)(=O)N(CC(=O)Nc1ccc2c(c1)OCCO2)c1ccc(C(C)C)cc1 [MLS000117406] |  | 14.2 |
| Cc1nc2ccccc2c2oc(C(=O)NCC3COc4ccccc4O3)cc12 (configuration not stated) [MLS000118430] | 8.06 |  |
| COc1ccc(CNC(=O)c2cc3c(C)nc4ccccc4c3o2)c(OC)c1 [MLS000118441] | 4.2 |  |
| Cc1csc(NC(=O)C(Cc2ccccc2)n2cccc2)n1 (configuration not stated) [MLS000119019] | 2.77 |  |
| O=C(Nc1ncc(Br)s1)C(Cc1ccccc1)n1cccc1 (configuration not stated) [MLS000119027] | 2.23 |  |

| Compound | EC50 [µM] | EC50 [1] [µM] |
| --- | --- | --- |
| CCSc1nnc(NC(=O)C(Cc2ccccc2)n2cccc2)s1 (configuration not stated) [MLS000119034] | > 30 |  |
| Cc1ccc(Cl)cc1N1CCN(C(=O)C2CCN(c3nnc(-n4cccc4)s3)CC2)CC1 [MLS000119702] |  | 34.4 |
| COc1ccc(S(=O)(=O)Cc2ccc(C(=O)N3CCN(c4cccc(C)c4C)CC3)o2)cc1 [MLS000120226] |  | 14 |
| COc1ccc(S(=O)(=O)Cc2ccc(C(=O)N3CCN(c4ccc(Cl)cc4)CC3)o2)cc1 [MLS000120227] |  | 13.7 |
| Cc1cccc(N2CCN(C(=O)C3CCCN(S(=O)(=O)c4cccc5cccnc45)C3)CC2)c1C (configuration not stated) [MLS000120299] |  | 16.3 |
| COc1ccc2c(c1)-c1nc(NC(=O)c3cccs3)sc1CC2 [N-(8-methoxy-4,5-dihydrobenzo[e][1,3]benzothiazol-2-yl)-2-thiophenecarboxamide] |  | 17.3 |
| Cc1ccc(-c2csc(N3CCC(NS(=O)(=O)c4ccc5c(c4)OCCO5)CC3)n2)cc1 [N-[1-[4-(4-methylphenyl)-1,3-thiazol-2-yl]piperidin-4-yl]-2,3-dihydro-1,4-benzodioxine-6-sulfonamide] | 1.65 |  |
| CCC(C)c1ccc2oc(-c3ccc(NC(=O)c4nnc[nH]4)cc3)nc2c1 (configuration not stated) [N-[4-(5-sec-butyl-1,3-benzoxazol-2-yl)phenyl]-1H-1,2,4-triazole-3-carboxamide] | > 10 |  |
| c1ccc(CNc2ncnc3ccccc23)cc1 [N-benzylquinazolin-4-amine] | 4.81 |  |
| Clc1ccc(CCNc2[nH]cnc3ncnc2-3)cc1 [SMR000017624] | 9.86 |  |
| CC1Cc2ccccc2N1c1ncnc2nc[nH]c12 (configuration not stated) [SMR000017649] | 3.78 |  |
| O=S1(=O)C=C(Sc2nc3cc(Cl)ccc3o2)c2ccccc21 [SMR000019512] | > 30 |  |
| CCCc1ccc(Oc2c[nH]nc2-c2ccc(O)c(C)c2O)cc1 [SMR000024172] | 12.9 |  |
| Cc1oc(-c2ccccc2)nc1Cn1cccc1C1=NC(c2ccccc2)CO1 (configuration not stated) [SMR000026251] | 0.922 |  |
| c1ccc2c(c1)CCN(c1ncnc3c1[nH]c1ccccc13)C2 [SMR000039631] | 1.19 |  |
| CCC(NC(C)c1ccccc1)=C1C(=O)N(C)C(=O)N(C)C1=O (configuration not stated) [SMR000043429] | 13.6 |  |
| Cc1ccccc1CS(=O)(=O)c1nnc([C@H](CC(C)C)NC(=O)OC(C)(C)C)o1 [SMR000044673] | 7.51 |  |
| Cc1ccc2c(c1)[nH]c1c(N3CCN(Cc4ccccc4)CC3)ncnc12 [SMR000044826] | 3.27 |  |
| COC(=O)CS(=O)(=O)c1nnc([C@H](Cc2ccccc2)NC(=O)OC(C)(C)C)o1 [SMR000046685] | 6.99 |  |
| CC(C)(C)OC(=O)N[C@@H](Cc1ccccc1)c1nnc(S(=O)(=O)Cc2ccccc2)o1 [SMR000047857] | 4.1 |  |

Reference: BindingDB's records for doi:10.7270/Q2251GJ9 (The Scripps Research Institute Molecular Screening Center, 2007)
